The target in the assay is T1, KRAS-G12C/SOS1 (Homo sapiens, UniProt Q07889).
T1 construct: purchased Cisbio 63ADKOOOCB16PEG
T1 sequence (Q07889 1-1333): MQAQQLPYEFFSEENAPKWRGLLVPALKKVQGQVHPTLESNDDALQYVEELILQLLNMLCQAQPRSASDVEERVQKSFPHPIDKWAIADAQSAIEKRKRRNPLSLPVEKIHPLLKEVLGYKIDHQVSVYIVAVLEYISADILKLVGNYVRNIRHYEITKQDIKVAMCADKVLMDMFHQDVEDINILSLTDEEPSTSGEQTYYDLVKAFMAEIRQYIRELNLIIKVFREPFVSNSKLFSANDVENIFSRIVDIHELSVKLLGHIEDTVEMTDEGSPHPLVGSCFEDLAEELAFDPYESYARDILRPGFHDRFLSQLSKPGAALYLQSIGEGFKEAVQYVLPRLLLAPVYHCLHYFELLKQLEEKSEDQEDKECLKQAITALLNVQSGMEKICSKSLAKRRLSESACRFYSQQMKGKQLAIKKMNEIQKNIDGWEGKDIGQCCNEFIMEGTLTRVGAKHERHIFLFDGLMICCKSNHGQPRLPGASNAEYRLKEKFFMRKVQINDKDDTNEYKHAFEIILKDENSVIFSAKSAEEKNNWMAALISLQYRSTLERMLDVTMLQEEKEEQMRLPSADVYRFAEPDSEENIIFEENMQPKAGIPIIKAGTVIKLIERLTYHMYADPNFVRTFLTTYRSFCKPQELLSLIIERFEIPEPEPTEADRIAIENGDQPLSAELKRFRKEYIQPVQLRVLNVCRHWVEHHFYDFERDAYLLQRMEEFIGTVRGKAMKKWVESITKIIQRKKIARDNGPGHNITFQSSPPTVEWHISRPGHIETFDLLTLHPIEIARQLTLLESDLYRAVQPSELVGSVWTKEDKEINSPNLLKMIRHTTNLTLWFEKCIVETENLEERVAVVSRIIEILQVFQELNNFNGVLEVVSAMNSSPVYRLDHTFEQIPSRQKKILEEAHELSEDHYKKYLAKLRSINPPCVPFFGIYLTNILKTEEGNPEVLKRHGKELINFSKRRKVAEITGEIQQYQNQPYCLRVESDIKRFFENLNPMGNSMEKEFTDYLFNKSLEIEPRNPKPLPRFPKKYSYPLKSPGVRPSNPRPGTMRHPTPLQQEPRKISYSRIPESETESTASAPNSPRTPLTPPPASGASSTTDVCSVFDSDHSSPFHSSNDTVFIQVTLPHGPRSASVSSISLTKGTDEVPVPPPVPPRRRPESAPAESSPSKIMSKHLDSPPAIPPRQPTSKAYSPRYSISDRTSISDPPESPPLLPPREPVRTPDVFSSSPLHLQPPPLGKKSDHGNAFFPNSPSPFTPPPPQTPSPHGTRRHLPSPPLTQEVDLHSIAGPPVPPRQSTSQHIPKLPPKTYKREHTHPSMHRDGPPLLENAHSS
The assay is described as follows: KRAS-G12C/SOS1 binding assay (HTRF). The note with it: inhibition of KRAS-G12C/SOS1 binding. A digest of the protocol: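 HTRF competition assay with Tag1-SOS1 and Tag2-KRAS-G12C (10 μM GTP). Compounds at 10000 nM-0.04 nM final (0.5% DMSO), incubated 15 min at 25° C, then anti-tag Tb3+/XL665 antibodies added for 3 h on ice. The 665/620 nm ratio was compared with control and IC50 derived by nonlinear fit.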
A general note: In TR-FRET formats the signal depends on donor and acceptor labels being close together.

As to `COc1cc2nc(C)nc(N[C@H](C)c3cc(N)cc(C(F)(F)F)c3)c2cc1[C@H]1CC[C@H](C(=O)N2CCN(CC3CCC4(CC3)CCN(C(=O)c3ccc(Cl)c(N5CCC(=O)NC5=O)c3)CC4)CC2)CC1` [Example 2, 1-(5-(9-((4-((1R,4R)-4-(4-(((R)-1-(3-amino-5-(trifluoromethyl)phenyl)ethyl)amino)-7-methoxy-2-methylquinazolin-6-yl)cyclohexane-1-carbonyl)piperazin-1-yl)methyl)-3-azaspiro[5.5]undecane-3-carbonyl)-2-chlorophenyl)dihydropyrimidine-2,4(1H,3H)-dione], the concentration for half-maximal inhibition (IC50) was no more than 0.015 µM.
`COc1cc2nc(C)nc(N[C@H](C)c3cc(N)cc(C(F)(F)F)c3)c2cc1[C@H]1CC[C@H](C(=O)N2CCN(CCC3CCC4(CC3)CCN(C(=O)c3ccc(Cl)c(N5CCC(=O)NC5=O)c3)CC4)CC2)CC1` [Example 1, 1-(5-(9-(2-(4-((1R,4R)-4-(4-(((R)-1-(3-amino-5-(trifluoromethyl)phenyl)ethyl)amino)-7-methoxy-2-methylquinazolin-6-yl)cyclohexane-1-carbonyl)piperazin-1-yl)ethyl)-3-azaspiro[5.5]undecane-3-carbonyl)-2-chlorophenyl)dihydropyrimidine-2,4(1H,3H)-dione] yielded an IC50 of 0.015 to 0.03 µM.

The IC50 is the concentration at which inhibition is half-maximal. Read a high IC50 as weaker potency.
